{
  "source": "patent US9480703B2",
  "about": "“Method and composition of glycosaminoglycans in sickle cell and vascular disorders” (priority 2013, dated 2016)",
  "key": {"[1]": {"test_system": "NFkB", "assay": "NF-KB luciferase reporter assay", "type": "cell-based", "conditions": "NF-KB Luciferase Reporter Hela Stable cells, 1 μL, 10 μL and 100 μL, two hours", "method": "The Luciferase Assay System was purchased from Promega (Madison, Wis., USA). NF-KB Luciferase Reporter Hela Stable cells were seeded at 10^4 cells/well in 96-well plate and incubated for 24 hours. Then, growth media was removed. Next, SNACH, tinzaparin or Poly-Arginine NPs were added at concentrations of 1 μL, 10 μL and 100 μL in triplicate and incubated at 36° C. for two hours. After two hours, cells were washed with PBS. Lysis buffer was prepared following a generic protocol. 0.5 mL of lysis buffer was mixed with 2 mL of PBS. Next, the lysis buffer's solution was added to each well. Afterward, the 96-well plate was rocked several times using a shaker. Cells and liquid were collected for centrifugation at 1200×g for 5 minutes at 4° C. The supernatant was removed and stored at −80° C. One week later, the 96-well plate was placed in the luminometer containing 20 μL of lysis buffer and 100 μL of luciferase assay reagent/well. The light was measured for a period of 10 seconds with a delay time of 2 seconds."}, "[2]": {"test_system": "adhesion of sickle RBCs to endothelial cells (HUVECs)", "assay": "Static adhesion assay of PKH67-labeled sickle RBCs on TNF-α-treated HUVECs", "type": "cell-based, human", "conditions": "HUVECs treated with TNF-α 10 ng/ml; PSI 10 μg/ml, LMWH & SNACH 40 μg/ml", "method": "Using gelatin-coated culture flasks, HUVEC were cultured in EGM complete media supplemented with 2 ml bovine brain extract (BBE), and passaged when 80% confluent using trypsin/EDTA solution according to the manufacturers' instructions. Cells from passages 2 to 6 were used for adhesion assay experiments. Cells were sub-cultured in a 96-well plate pre-coated with collagen with a number of 20,000 cells per well, and were left for 24 hours at 37° C. in a CO2 (5%) incubator to form a confluent monolayer.\nNormal and sickle blood samples were collected in EDTA tubes from the antecubital vein of healthy volunteers and homozygous sickle cell patients, respectively. […] Packed RBCs were washed once with PBS, and counted using a CBC analyzer. […]\nAfter HUVECs formed a confluent monolayer in the plate's wells, the experiment was designed to include five groups in […]: medium only (negative control), TNF-α only (positive control), or TNF-α with the treatment compounds: LMWH, SNACH, and PSI. […] Non-adherent RBCs were removed with PBS wash, and then 150 μl of complete medium were added for plate reading.\nIn order to quantitate endothelial-adherent RBCs by the fluorescence plate reader, serial two-fold dilutions of PKH67-labeled RBC samples were prepared from 2×10^6 to 0.16×10^6 RBCs/well. […] fluorescence was detectable with as few as 10^4 RBCs. […]"}, "[3]": {"assay": "Mortality of treated SCD mice", "type": "in vivo", "conditions": "LMWH 5 mg/kg daily, % of the group's mice", "method": "(§1) Each category of mice (wild or SCD) was divided into three groups. Basal blood samples were taken by retro orbital venipuncture under anesthesia with citrated micro-hematocrit tubes, before the treatment administration. The three groups in each category were treated subcutaneously with LMWH (5 mg/kg), SNACH (20 mg/kg), and PSI (10 mg/kg). Compounds were administered daily for 7 days, and follow up blood samples were drawn daily after 1 hour of treatment administration. Immediately after collection, blood was centrifuged at 800×g for 5 minutes and plasma was collected and stored at −80° C."}, "[4]": {"test_system": "P-selectin", "assay": "P-selectin levels in plasma of transgenic sickle cell mice", "type": "in vivo", "conditions": "daily subcutaneous treatment for 7 days, LMWH 5 mg/kg, SNACH (NACH) 20 mg/kg", "excerpt": "(§2) Transgenic SCD model mice (stock #013071) of aged-matched female were obtained from The Jackson Laboratory (Bar Harbor, Me.) in addition to wild mice as controls. Genetically, transgenic mice were designed with the human hemoglobin gamma (^Ay) gene and the human sickle hemoglobin beta (β^S) gene replacing the endogenous mouse major and minor β-globin.\nas §1"}, "[5]": {"test_system": "endogenous pathway of coagulation", "assay": "aPTT in citrated plasma", "conditions": "SNACH 1-10 uM", "method": "To 0.1 ml of citrated plasma 0.1 ml of human placenta lipid is added and the mixture is incubated for 2 min at 37° C. The coagulation process is initiated by the addition of 0.1 ml 25 mM calcium chloride and the time to clot formation is determined. The aPTT measures effects on the endogenous pathway of coagulation."}, "[6]": {"test_system": "platelet/fibrin clot dynamics", "assay": "Thrombelastography (TEG), cup with or without HUVEC coating", "conditions": "re-calcified citrated whole blood", "method": "Thrombelastography (TEG) was performed in either citrated whole blood after re-calcification. The blood samples were mixed with 3.8% tri-sodium citrate solution (one part citrate solution to 9 parts blood) as anticoagulant. The citrated whole blood was re-calcified by adding 0.4 ml isotonic calcium chloride solution. An aliquot of 0.36 ml of the re-calcified whole blood was transferred to the pre-warmed cup (Coated with monolayer of HUVEC or not) of the thrombelastograph. The following measurements were the standard variables of TEG: (i) Reaction time (R): the time from sample placement in the cup until onset of clotting (defined as amplitude of 1 mm). This represents the rate of initial fibrin formation; (ii) Maximum amplitude (MA): greatest amplitude on the TEG trace, wherein MA represents the absolute strength of the fibrin clot and is a direct function of the maximum dynamic strength of fibrin and platelets."}, "[7]": {"assay": "aPTT in dosed mice", "type": "in vivo", "conditions": "subcutaneous, SNACH 0.1-40 mg/Kg, tinzaparin 0.1-5.0 mg/Kg"}, "[8]": {"test_system": "factor Xa", "assay": "Anti-Xa in dosed mice", "type": "in vivo", "conditions": "subcutaneous, SNACH 0.1-40 mg/Kg, tinzaparin 0.1-5.0 mg/Kg"}, "[9]": {"test_system": "ICAM-1", "assay": "ICAM-1 levels in plasma of transgenic sickle cell mice", "type": "in vivo", "conditions": "daily subcutaneous treatment for 7 days, LMWH 5 mg/kg, SNACH (NACH) 20 mg/kg, PSI-14 10 mg/kg", "excerpt": "as §2, §1\nLevels of adhesion biomarker ICAM-1 were measured in mice plasma using the Bio-Plex 200 systems. Assay kit (171-304080M) was obtained from Bio-Rad (Hercules, Calif.) and the experiment was conducted following the provided instructions. The assay principle is based on the concept of sandwich ELISA where magnetic beads are covalently bound to the capture antibodies that react to the targeted biomarker. […]"}, "[10]": {"assay": "Bleeding time in mice", "type": "in vivo"}},
  "data": [
    {"substance": "tinzaparin [LMWH]", "values": [
      {"measurement": "NFkB activation", "setting": "[1]", "result": "significant concentration-dependent suppression of NFkB activation"},
      {"measurement": "adhesion of sickle RBCs to the endothelial layer compared to TNF-α only (positive control)", "setting": "[2]", "result": "did not show a decrease in the adhesion that could be considered statistically significant"},
      {"measurement": "mortality rate (bleeding complications)", "setting": "[3]", "result": 75, "unit": "%"},
      {"measurement": "decrease of P-selectin levels in plasma", "setting": "[4]", "result": "~15", "unit": "%"},
      {"measurement": "effect on aPTT", "setting": "[5]", "result": "concentration dependent increase in aPTT"},
      {"measurement": "platelet/fibrin clot dynamics (TEG)", "setting": "[6]; absence of endothelial cell coating of cup", "result": "suppression of platelet/fibrin clot dynamics"},
      {"measurement": "platelet/fibrin clot dynamics (TEG)", "setting": "[6]; presence of endothelial cell (HUVEC) coating of cup", "result": "suppression of platelet/fibrin clot dynamics"},
      {"measurement": "aPTT", "setting": "[7]", "result": "increase in aPTT"},
      {"measurement": "anti-Xa", "setting": "[8]", "result": "inhibition of factor Xa"},
      {"measurement": "ICAM-1 levels in plasma at multiple time points", "setting": "[9]", "result": "showed a decrease only on the first and third days of treatment"},
      {"measurement": "bleeding time", "setting": "[10]; subcutaneous, SNACH 0.1-40 mg/Kg, tinzaparin 0.1-5.0 mg/Kg", "result": "maximal increase in bleeding time"},
      {"measurement": "finding at site of injection", "setting": "[10]; tinzaparin 0.1-5.0 mg/Kg subcutaneously", "result": "browsing at site of injection"}
    ]}
  ]
}
